According to US20060089352A1, “Substituted thiazines as material protecting agents” (priority 2002, published 2006):

Key:
Type in all cases: cell-based
[1] = tested on: Chaetomium globosum; test: Minimum inhibitory concentration (MIC) on malt extract agar; conditions: 2 weeks incubation at 28° C., 60 to 70% relative atmospheric humidity
Protocol: (§1) The MIC was determined after 2 weeks of incubation at 28° C. and 60 to 70% relative atmospheric humidity. The MIC is the lowest concentration of active compound at which there is no colonization by the microbial species used; it is indicated in Table 2.

[2] = tested on: Aspergillus niger; test: as above; conditions: 2 weeks incubation at 28° C., 60 to 70% relative atmospheric humidity
Protocol: as §1

[3] = tested on: Penicillium brevicaule; test: as above; conditions: 2 weeks incubation at 28° C., 60 to 70% relative atmospheric humidity
Protocol: as §1

[4] = tested on: mold fungi (Alternaria tenuis, Aspergillus flavus, Aspergillus niger, Aspergillus ustus, Cindosporum herbarum, Paecilomyces variotii, Penicillium citrium …); test: Test of dispersion coatings for resistance to mold; conditions: coatings according to recipe A containing 1.5% (based on solids) of compound; even after rinsing out and wind tunnel exposure; 2-3 weeks storage, 29±1° C., 80-90% rel. humidity
Protocol: To test dispersion coatings for resistance to mold, the following procedure was adopted:
The paint to be tested was applied to both sides of a suitable base. To obtain results which are close to practice, some of the test specimens were rinsed out with running water (24 h, 20° C.) before the test for mold resistance; others were treated with a current of warm fresh air (7 days, 40° C.).
The samples prepared in this way were then placed on an agar nutrient medium, and both samples and nutrient medium were contaminated with fungal spores. After 2-3 weeks storage (29±1° C., 80-90% rel. atmospheric humidity), the samples were compared.
The coating is considered to be permanently mold-resistant if the sample remains free from fungus or at most a slight border infestation can be detected.
For the contamination, fungal spores of the following mold fungi were used, which are known as paint destroyers or are frequently encountered on coatings: • Alternaria tenuis • Aspergillus flavus • Aspergillus niger • Aspergillus ustus • Cindosporum herbarum • Paecilomyces variotii • Penicillium citrium • Aureobasidium pullulans • Stachybotrys chartarum
Recipe A: Exterior dispersion paint based on Acroal 290 D (styrene acrylate)

Row | Compound | Minimum inhibitory concentrations Chaetomium globosum [1] [ppm] | Minimum inhibitory concentrations Aspergillus niger [2] [ppm] | Minimum inhibitory concentrations Penicillium brevicaule [3] [ppm] | Mold resistance of coating [4]
1 | COc1ccc(SC2=NCC(C)CS2)cc1 (centres unmarked) [Example 1] | <100 | <200 | <100 | –
2 | COc1ccc(SC2=NC3CCCCC3CS2)cc1 (centres unmarked) [Example 4] | 100 | – | – | –
3 | CC1CN=C(Sc2ccc(Cl)cc2)SC1 (centres unmarked) [Example 6] | 20 | 50 | 20 | –
4 | CC1CN=C(Sc2ccccc2)SC1 (centres unmarked) [Example 11] | <50 | <50 | <50 | –
5 | CC1(C)CN=C(Sc2cccs2)SC1 [Example 45] | <50 | <200 | <50 | –
6 | COc1ccc(SC2=NCC(C)(C)CS2)cc1 [Example 47] | – | – | – | mold resistant
7 | CC1(C)CN=C(Sc2cccc(F)c2)SC1 [Example 51] | <200 | 200 | <200 | –
8 | CC1(C)CCSC(Sc2ccc(Cl)cc2)=N1 [Example 61] | 200 | – | – | –
9 | CC1CCN=C(Sc2ccccc2)S1 (centres unmarked) [Example 62] | <100 | <100 | <50 | –
10 | COc1cccc(SC2=NCCC(C)S2)c1 (centres unmarked) [Example 67] | <100 | <200 | <100 | –
11 | c1csc(SC2=NC3CCCC3CS2)c1 (centres unmarked) [Example 79] | <100 | – | 100 | –
12 | c1ccc(SC2=NC3CCCC3CS2)cc1 (centres unmarked) [Example 81] | <100 | – | 200 | –
13 | Cc1ccc(SC2=NC3CCCC3CS2)cc1 (centres unmarked) [Example 82] | 100 | – | – | –
